Experiments:
Experiment in all cases: Test B pre-/postemergence plant response
Assay type in all cases: in vivo
Conditions in all cases: Postemergence
[1] = system: goosegrass (Eleusine indica)
In short: (§1)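 Ratings reflect visual comparison with untreated controls 13 to 15 days after application, from 0 (no effect) to 100 (complete control). Application was preemergence to seeded loam/sand soil or postemergence to 1- to 4-leaf plants, with compound in a non-phytotoxic, surfactant-containing solvent.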

[2] = system: large crabgrass (Digitaria sanguinalis)
In short: as §1

[3] = system: johnsongrass (Sorghum halepense)
In short: as §1

[4] = system: velvetleaf (Abutilon theophrasti)
In short: as §1

[5] = system: pigweed (Amaranthus retroflexus)
In short: as §1

[6] = system: kochia (Kochia scoparia)
In short: as §1

[7] = system: yellow nutsedge (Cyperus esculentus)
In short: as §1

[8] = system: wheat (Triticum aestivum)
In short: as §1

[9] = system: downy bromegrass (Bromus tectorum)
In short: as §1

[10] = system: giant foxtail (Setaria faberii)
In short: as §1

[11] = system: woolly cupgrass (Eriochloa villosa)
In short: as §1

[12] = system: lambsquarters (Chenopodium album)
In short: as §1

[13] = system: green foxtail (Setaria viridis)
In short: as §1

[14] = 31 g ai/ha, 0 to 100 scale (0 no effect, 100 complete control)
[15] = 62 g ai/ha, scale 0 to 100 (0 no effect, 100 complete control)
[16] = 125 g ai/ha, scale 0 to 100 (0 no effect, 100 complete control)
[17] = 250 g ai/ha, scale 0 to 100 (0 no effect, 100 complete control), 13 to 15 days

Structure (SMILES): COCCn1c(-c2cccc(C)c2)ncc(C(=O)C2=C(O)C3CCC(C3)C2=O)c1=O (centres unmarked) [Compound 233]
- Plant response rating, Goosegrass [1, 14]: 85
- Plant response rating, Goosegrass [1, 15]: 95
- Plant response rating, Goosegrass [1, 16]: 98
- Plant response rating, Goosegrass [1, 17]: 98
- Plant response rating, Crabgrass, Large [2, 14]: 80
- Plant response rating, Crabgrass, Large [2, 15]: 90
- Plant response rating, Crabgrass, Large [2, 16]: 98
- Plant response rating, Crabgrass, Large [2, 17]: 100
- Plant response rating, Johnsongrass [3, 14]: 0
- Plant response rating, Johnsongrass [3, 15]: 5
- Plant response rating, Johnsongrass [3, 16]: 25
- Plant response rating, Johnsongrass [3, 17]: 25
- Plant response rating, Velvetleaf [4, 14]: 80
- Plant response rating, Velvetleaf [4, 15]: 85
- Plant response rating, Velvetleaf [4, 17]: 100
- Plant response rating, Pigweed [5, 14]: 85
- Plant response rating, Pigweed [5, 15]: 98
- Plant response rating, Kochia [6, 14]: 70
- Plant response rating, Kochia [6, 15]: 85
- Plant response rating, Nutsedge, Yellow [7, 14]: 0
- Plant response rating, Nutsedge, Yellow [7, 15]: 5
- Plant response rating, Nutsedge, Yellow [7, 16]: 25
- Plant response rating, Nutsedge, Yellow [7, 17]: 25
- Plant response rating, Wheat [8, 14]: 10
- Plant response rating, Wheat [8, 15]: 30
- Plant response rating, Wheat [8, 17]: 65
- Plant response rating, Bromegrass, Downy [9, 14]: 40
- Plant response rating, Bromegrass, Downy [9, 15]: 40
- Plant response rating, Bromegrass, Downy [9, 16]: 50
- Plant response rating, Bromegrass, Downy [9, 17]: 60
- Plant response rating, Foxtail, Giant [10, 14]: 90
- Plant response rating, Foxtail, Giant [10, 15]: 95
- Plant response rating, Foxtail, Giant [10, 16]: 98
- Plant response rating, Foxtail, Giant [10, 17]: 98
- Plant response rating, Cupgrass, Woolly [11, 14]: 80
- Plant response rating, Cupgrass, Woolly [11, 15]: 85
- Plant response rating, Cupgrass, Woolly [11, 16]: 100
- Plant response rating, Cupgrass, Woolly [11, 17]: 100
- Plant response rating, Lambsquarters [12, 14]: 98
- Plant response rating, Lambsquarters [12, 15]: 98
- Plant response rating, Lambsquarters [12, 16]: 100
- Plant response rating, Lambsquarters [12, 17]: 100
- Plant response rating, Foxtail, Green [13, 14]: 85
- Plant response rating, Foxtail, Green [13, 15]: 90
- Plant response rating, Foxtail, Green [13, 16]: 95
- Plant response rating, Foxtail, Green [13, 17]: 100

Structure (SMILES): COCCn1c(-c2cccc(F)c2)ncc(C(=O)C2=C(O)C3CCC(C3)C2=O)c1=O (centres unmarked) [Compound 235]
- Plant response rating, Goosegrass [1, 14]: 95
- Plant response rating, Goosegrass [1, 15]: 98
- Plant response rating, Goosegrass [1, 16]: 98
- Plant response rating, Goosegrass [1, 17]: 100
- Plant response rating, Crabgrass, Large [2, 14]: 98
- Plant response rating, Crabgrass, Large [2, 15]: 98
- Plant response rating, Crabgrass, Large [2, 16]: 98
- Plant response rating, Crabgrass, Large [2, 17]: 100
- Plant response rating, Johnsongrass [3, 14]: 70
- Plant response rating, Johnsongrass [3, 15]: 80
- Plant response rating, Johnsongrass [3, 16]: 100
- Plant response rating, Johnsongrass [3, 17]: 100
- Plant response rating, Velvetleaf [4, 14]: 95
- Plant response rating, Velvetleaf [4, 15]: 100
- Plant response rating, Velvetleaf [4, 17]: 100
- Plant response rating, Pigweed [5, 14]: 100
- Plant response rating, Pigweed [5, 15]: 100
- Plant response rating, Pigweed [5, 17]: 100
- Plant response rating, Kochia [6, 14]: 98
- Plant response rating, Kochia [6, 15]: 100
- Plant response rating, Kochia [6, 16]: 100
- Plant response rating, Kochia [6, 17]: 100
- Plant response rating, Nutsedge, Yellow [7, 14]: 45
- Plant response rating, Nutsedge, Yellow [7, 15]: 45
- Plant response rating, Nutsedge, Yellow [7, 16]: 55
- Plant response rating, Nutsedge, Yellow [7, 17]: 60
- Plant response rating, Wheat [8, 14]: 45
- Plant response rating, Wheat [8, 15]: 80
- Plant response rating, Wheat [8, 17]: 80
- Plant response rating, Bromegrass, Downy [9, 14]: 10
- Plant response rating, Bromegrass, Downy [9, 15]: 30
- Plant response rating, Bromegrass, Downy [9, 16]: 50
- Plant response rating, Bromegrass, Downy [9, 17]: 85
- Plant response rating, Foxtail, Giant [10, 14]: 98
- Plant response rating, Foxtail, Giant [10, 15]: 100
- Plant response rating, Foxtail, Giant [10, 16]: 100
- Plant response rating, Foxtail, Giant [10, 17]: 100
- Plant response rating, Cupgrass, Woolly [11, 14]: 95
- Plant response rating, Cupgrass, Woolly [11, 15]: 100
- Plant response rating, Cupgrass, Woolly [11, 16]: 100
- Plant response rating, Cupgrass, Woolly [11, 17]: 100
- Plant response rating, Lambsquarters [12, 14]: 98
- Plant response rating, Lambsquarters [12, 15]: 100
- Plant response rating, Lambsquarters [12, 16]: 100
- Plant response rating, Lambsquarters [12, 17]: 100
- Plant response rating, Foxtail, Green [13, 14]: 90
- Plant response rating, Foxtail, Green [13, 15]: 90
- Plant response rating, Foxtail, Green [13, 16]: 95
- Plant response rating, Foxtail, Green [13, 17]: 98

Reference: patent publication US8952024B2, “Herbicidal pyrimidone derivatives” (E I du Pont de Nemours and Company, priority 2009, dated 2015)
